Laboratory results from the NIST ThermoML archive (doi:10.1021/acs.jced.7b00236).
“And” between values parts separate entries of the source, which are not always exact repeats. Equal values may be shown once. Numbers after ± are expanded uncertainties.

Details: Liquid, Ebulliometric method (Recirculating still)

## CCOC(=O)OCC [diethyl carbonate]
303.15 K
  vapor or sublimation pressure: 1.95 ± 0.14 kPa and 1.99 ± 0.14 kPa
308.15 K
  vapor or sublimation pressure: 2.61 ± 0.14 kPa and 2.65 ± 0.14 kPa
313.15 K
  vapor or sublimation pressure: 3.43 ± 0.14 kPa and 3.45 ± 0.14 kPa
318.15 K
  vapor or sublimation pressure: 4.46 ± 0.14 kPa and 4.51 ± 0.14 kPa
323.15 K
  vapor or sublimation pressure: 5.75 ± 0.14 kPa and 5.83 ± 0.14 kPa

## Cc1ccccc1 [toluene]
303.15 K
  vapor or sublimation pressure: 4.87 ± 0.14 kPa
308.15 K
  vapor or sublimation pressure: 6.32 ± 0.14 kPa
313.15 K
  vapor or sublimation pressure: 7.78 ± 0.14 kPa
318.15 K
  vapor or sublimation pressure: 9.89 ± 0.14 kPa
323.15 K
  vapor or sublimation pressure: 12.27 ± 0.14 kPa

## CC(C)CC(C)(C)C [2,2,4-trimethylpentane]
303.15 K
  vapor or sublimation pressure: 8.33 ± 0.14 kPa
308.15 K
  vapor or sublimation pressure: 10.44 ± 0.14 kPa
313.15 K
  vapor or sublimation pressure: 12.97 ± 0.14 kPa
318.15 K
  vapor or sublimation pressure: 15.98 ± 0.15 kPa
323.15 K
  vapor or sublimation pressure: 19.54 ± 0.15 kPa

## CCCCCCC [heptane]
303.15 K
  vapor or sublimation pressure: 7.79 ± 0.14 kPa
308.15 K
  vapor or sublimation pressure: 9.85 ± 0.14 kPa
313.15 K
  vapor or sublimation pressure: 12.34 ± 0.14 kPa
318.15 K
  vapor or sublimation pressure: 15.33 ± 0.15 kPa
323.15 K
  vapor or sublimation pressure: 18.9 ± 0.15 kPa
